Like-named read-outs stand apart in the source and are kept apart here.
Legend:
Assay in all cases: Antibacterial spectra, MIC by standard method of Japan Society of Chemotherapy
Assay type in all cases: cell-based
[1] = tested on: Bacteroides fragilis GM 7000; conditions: 10^6 cells/ml; for MIC: GM7000, Gram −, read-out: Minimum Inhibitory Concentration; for ratio of activity per that of Ciprofloxacin (bracketed number): Gram −
[2] = tested on: S. pneumoniae 2054; conditions: Gram +, 10^6 cells/ml; for MIC: Streptococcus pneumoniae, read-out: Minimum Inhibitory Concentration
[3] = tested on: E. coli ATCC 10536; conditions: 10^6 cells/ml; for MIC: Escherichia coli, ATCC10536, Gram −, read-out: Minimum Inhibitory Concentration; for ratio of activity per that of Ciprofloxacin (bracketed number): Gram −
[4] = tested on: Bacillus subtilis PCI 219; conditions: 10^6 cells/ml; for ratio of activity per that of Ciprofloxacin (bracketed number): Gram +; for MIC: PCI219, Gram +, read-out: Minimum Inhibitory Concentration
[5] = tested on: Serratia marcescens IID 618; conditions: 10^6 cells/ml; for ratio of activity per that of Ciprofloxacin (bracketed number): Gram −; for MIC: IID618, Gram −, read-out: Minimum Inhibitory Concentration
[6] = tested on: P. morganii IID 602; conditions: 10^6 cells/ml; for ratio of activity per that of Ciprofloxacin (bracketed number): Gram −; for MIC: Morganella morganii, IID602, Gram −, read-out: Minimum Inhibitory Concentration
[7] = tested on: Enterobacter cloacae IID 977; conditions: 10^6 cells/ml; for ratio of activity per that of Ciprofloxacin (bracketed number): Gram −; for MIC: IID977, Gram −, read-out: Minimum Inhibitory Concentration
[8] = tested on: E. coli NIHJ JC-2; conditions: for MIC: Escherichia coli
[9] = tested on: Bacteroides fragilis 0558; conditions: Gram −, 10^6 cells/ml; for MIC: read-out: Minimum Inhibitory Concentration
[10] = tested on: Shigella sonnei IID 969; conditions: 10^6 cells/ml; for ratio of activity per that of Ciprofloxacin (bracketed number): Gram −; for MIC: IID969, Gram −, read-out: Minimum Inhibitory Concentration
Method: Experiment 1. Antibacterial spectra
Antibacterial activity was determined with the standard method recommended by Japan Society of Chemotherapy.

[11] = tested on: Salmonella enteritidis IID 604; conditions: Gram −, 10^6 cells/ml; for MIC: Salmonella enterica, read-out: Minimum Inhibitory Concentration
[12] = tested on: Yersinia enterocolitica IID 981; conditions: 10^6 cells/ml; for ratio of activity per that of Ciprofloxacin (bracketed number): Gram −; for MIC: IID981, Gram −, read-out: Minimum Inhibitory Concentration
[13] = tested on: Bacteroides fragilis 25285; conditions: Gram −, 10^6 cells/ml; for MIC: read-out: Minimum Inhibitory Concentration
[14] = tested on: S. epidermidis IID 866; conditions: 10^6 cells/ml; for ratio of activity per that of Ciprofloxacin (bracketed number): Gram +; for MIC: Staphylococcus epidermidis, IID866, Gram +, read-out: Minimum Inhibitory Concentration
[15] = tested on: Acinetobacter anitratus IID 876; conditions: 10^6 cells/ml; for MIC: Acinetobacter calcoaceticus, IID876, Gram −, read-out: Minimum Inhibitory Concentration; for ratio of activity per that of Ciprofloxacin (bracketed number): Gram −
[16] = tested on: Proteus vulgaris IFO 3167; conditions: Proteus vulgaris IFO 3167, Gram −, 10^6 cells/ml; for MIC: IFO3167, read-out: Minimum Inhibitory Concentration
[17] = tested on: Klebsiella pneumoniae KY 6445; conditions: 10^6 cells/ml; for ratio of activity per that of Ciprofloxacin (bracketed number): Gram −; for MIC: KY6445, Gram −, read-out: Minimum Inhibitory Concentration
[18] = tested on: Pseudomonas aeruginosa IFO 12689; conditions: 10^6 cells/ml; for ratio of activity per that of Ciprofloxacin (bracketed number): Gram −; for MIC: IFO12689, Gram −, read-out: Minimum Inhibitory Concentration
[19] = tested on: Citrobacter freundii IID 976; conditions: 10^6 cells/ml; for ratio of activity per that of Ciprofloxacin (bracketed number): Gram −; for MIC: IID976, Gram −, read-out: Minimum Inhibitory Concentration
[20] = tested on: Streptococcus pyogenes IID 692; conditions: 10^6 cells/ml; for ratio of activity per that of Ciprofloxacin (bracketed number): Gram +; for MIC: IID692, Gram +, read-out: Minimum Inhibitory Concentration
[21] = tested on: Alcaligenes faecalis 0104002; conditions: Gram −, 10^6 cells/ml; for MIC: read-out: Minimum Inhibitory Concentration
[22] = tested on: S. faecalis IID 682; conditions: 10^6 cells/ml; for MIC: Enterococcus faecalis, IID682, Gram +, read-out: Minimum Inhibitory Concentration; for ratio of activity per that of Ciprofloxacin (bracketed number): Gram +
[23] = tested on: Pseudomonas aeruginosa V-1; conditions: 10^6 cells/ml; for ratio of activity per that of Ciprofloxacin (bracketed number): Gram −; for MIC: V1, Gram −, read-out: Minimum Inhibitory Concentration
[24] = tested on: Staphylococcus aureus 209 P; conditions: Gram +, 10^6 cells/ml; for MIC: read-out: Minimum Inhibitory Concentration
[25] = tested on: S. pyogenes IID 689 (S-8); conditions: 10^6 cells/ml; for ratio of activity per that of Ciprofloxacin (bracketed number): Gram +; for MIC: Streptococcus pyogenes, IID689, Gram +, read-out: Minimum Inhibitory Concentration
[26] = tested on: P. mirabilis IID 994; conditions: 10^6 cells/ml; for ratio of activity per that of Ciprofloxacin (bracketed number): Gram −; for MIC: Proteus mirabilis, IID994, Gram −, read-out: Minimum Inhibitory Concentration
[27] = tested on: S. aureus IID 670 (Terajima); conditions: 10^6 cells/ml; for ratio of activity per that of Ciprofloxacin (bracketed number): Gram +; for MIC: Staphylococcus aureus, IID670, Gram +, read-out: Minimum Inhibitory Concentration
[28] = E. coli NIHJ JC-2, Gram −, 10^6 cells/ml

O=C(O)c1cn(C2CC2)c2c(F)c(N3CCNCC3)c(F)cc2c1=O [Reference- 1, 1-Cyclopropyl-6,8-difluoro-1,4-dihydro-4-oxo-7-(1-piperazinyl)quinoline-3-carboxylic acid, reference compound]
0.02 µg/mL: MIC [21]
0.2 µg/mL: MIC [14] | MIC [23] | MIC [24] | MIC [27]
1.56 µg/mL: MIC [1]
0.78 µg/mL: MIC [9] | MIC [13] | MIC [20] | MIC [22]
0.025 µg/mL: MIC [4] | MIC [6] | MIC [7] | MIC [12]
4: ratio of activity per that of Ciprofloxacin (bracketed number) [5] | ratio of activity per that of Ciprofloxacin (bracketed number) [9]
≤ 0.006 µg/mL: MIC [16] | MIC [26]
0.1 µg/mL: MIC [5]
0.39 µg/mL: MIC [18]
1: ratio of activity per that of Ciprofloxacin (bracketed number) [3] | ratio of activity per that of Ciprofloxacin (bracketed number) [8, 28] | ratio of activity per that of Ciprofloxacin (bracketed number) [10] | ratio of activity per that of Ciprofloxacin (bracketed number) [16] | ratio of activity per that of Ciprofloxacin (bracketed number) [17] | ratio of activity per that of Ciprofloxacin (bracketed number) [18] | ratio of activity per that of Ciprofloxacin (bracketed number) [20] | ratio of activity per that of Ciprofloxacin (bracketed number) [22] | ratio of activity per that of Ciprofloxacin (bracketed number) [23] | ratio of activity per that of Ciprofloxacin (bracketed number) [25]
2: ratio of activity per that of Ciprofloxacin (bracketed number) [1] | ratio of activity per that of Ciprofloxacin (bracketed number) [2] | ratio of activity per that of Ciprofloxacin (bracketed number) [4] | ratio of activity per that of Ciprofloxacin (bracketed number) [6] | ratio of activity per that of Ciprofloxacin (bracketed number) [7] | ratio of activity per that of Ciprofloxacin (bracketed number) [12] | ratio of activity per that of Ciprofloxacin (bracketed number) [14] | ratio of activity per that of Ciprofloxacin (bracketed number) [15] | ratio of activity per that of Ciprofloxacin (bracketed number) [21] | ratio of activity per that of Ciprofloxacin (bracketed number) [24] | ratio of activity per that of Ciprofloxacin (bracketed number) [26] | ratio of activity per that of Ciprofloxacin (bracketed number) [27]
0.0125 µg/mL: MIC [3] | MIC [11] | MIC [15] | MIC [19]
0.5: ratio of activity per that of Ciprofloxacin (bracketed number) [19]

O=C(O)c1cn(C2CC2)c2c(Cl)c(N3CCNCC3)c(F)cc2c1=O [Example 25, 8-Chloro-l-cyclopropyl-6-fluoro-l,4-dihydro-4-oxo-7-(1-piperazinyl)quinoline-3-carboxylic acid]
0.39 µg/mL: MIC [1] | MIC [2] | MIC [18] | MIC [20]
0.02 µg/mL: MIC [21]
≤ 0.006 µg/mL: MIC [3] | MIC ([8]; NIHJJC2, E. coli NIHJ JC-2, Gram −, 10^6 cells/ml, read-out: Minimum Inhibitory Concentration) | MIC [10] | MIC [16]
0.0125 µg/mL: MIC [4] | MIC [6] | MIC [11] | MIC [17] | MIC [19] | MIC [26]
0.1 µg/mL: MIC [27]
1: ratio of activity per that of Ciprofloxacin (bracketed number) [8, 28] | ratio of activity per that of Ciprofloxacin (bracketed number) [10] | ratio of activity per that of Ciprofloxacin (bracketed number) [16] | ratio of activity per that of Ciprofloxacin (bracketed number) [17] | ratio of activity per that of Ciprofloxacin (bracketed number) [18] | ratio of activity per that of Ciprofloxacin (bracketed number) [26]
0.2 µg/mL: MIC [9] | MIC [13] | MIC [22] | MIC [25]
8: ratio of activity per that of Ciprofloxacin (bracketed number) [1] | ratio of activity per that of Ciprofloxacin (bracketed number) [14] | ratio of activity per that of Ciprofloxacin (bracketed number) [24]
0.5: ratio of activity per that of Ciprofloxacin (bracketed number) [15] | ratio of activity per that of Ciprofloxacin (bracketed number) [19]
0.025 µg/mL: MIC [5] | MIC [7] | MIC [12]
4: ratio of activity per that of Ciprofloxacin (bracketed number) [2] | ratio of activity per that of Ciprofloxacin (bracketed number) [23] | ratio of activity per that of Ciprofloxacin (bracketed number) [27]
16: ratio of activity per that of Ciprofloxacin (bracketed number) [5] | ratio of activity per that of Ciprofloxacin (bracketed number) [9] | ratio of activity per that of Ciprofloxacin (bracketed number) [13]
2: ratio of activity per that of Ciprofloxacin (bracketed number) [3] | ratio of activity per that of Ciprofloxacin (bracketed number) [7] | ratio of activity per that of Ciprofloxacin (bracketed number) [11] | ratio of activity per that of Ciprofloxacin (bracketed number) [12] | ratio of activity per that of Ciprofloxacin (bracketed number) [20] | ratio of activity per that of Ciprofloxacin (bracketed number) [21] | ratio of activity per that of Ciprofloxacin (bracketed number) [25]
0.05 µg/mL: MIC [14] | MIC [15] | MIC [23] | MIC [24]

CN1CCN(c2c(F)cc3c(=O)c(C(=O)O)cn(C4CC4)c3c2F)CC1 [Reference- 2, 1-Cyclopropyl-6,8-difluoro-1,4-dihydro-7-(4-methyl-1-piperazinyl)-4-oxoquinoline-3-carboxylic acid, reference compound]
0.78 µg/mL: MIC [1] | MIC [2] | MIC [20] | MIC [22] | MIC [25]
8: ratio of activity per that of Ciprofloxacin (bracketed number) [13]
0.5: ratio of activity per that of Ciprofloxacin (bracketed number) [8, 28] | ratio of activity per that of Ciprofloxacin (bracketed number) [10] | ratio of activity per that of Ciprofloxacin (bracketed number) [11] | ratio of activity per that of Ciprofloxacin (bracketed number) [23] | ratio of activity per that of Ciprofloxacin (bracketed number) [25] | ratio of activity per that of Ciprofloxacin (bracketed number) [26]
0.025 µg/mL: MIC [16] | MIC [19] | MIC [26]
0.1 µg/mL: MIC [24]
0.25: ratio of activity per that of Ciprofloxacin (bracketed number) [16] | ratio of activity per that of Ciprofloxacin (bracketed number) [19]
2: ratio of activity per that of Ciprofloxacin (bracketed number) [2] | ratio of activity per that of Ciprofloxacin (bracketed number) [14] | ratio of activity per that of Ciprofloxacin (bracketed number) [15] | ratio of activity per that of Ciprofloxacin (bracketed number) [27]
0.2 µg/mL: MIC [14] | MIC [27]
0.05 µg/mL: MIC [4] | MIC [6] | MIC [7] | MIC [11] | MIC [12]
1: ratio of activity per that of Ciprofloxacin (bracketed number) [3] | ratio of activity per that of Ciprofloxacin (bracketed number) [4] | ratio of activity per that of Ciprofloxacin (bracketed number) [5] | ratio of activity per that of Ciprofloxacin (bracketed number) [6] | ratio of activity per that of Ciprofloxacin (bracketed number) [7] | ratio of activity per that of Ciprofloxacin (bracketed number) [12] | ratio of activity per that of Ciprofloxacin (bracketed number) [17] | ratio of activity per that of Ciprofloxacin (bracketed number) [18] | ratio of activity per that of Ciprofloxacin (bracketed number) [20] | ratio of activity per that of Ciprofloxacin (bracketed number) [22]
0.02 µg/mL: MIC [21]
4: ratio of activity per that of Ciprofloxacin (bracketed number) [1] | ratio of activity per that of Ciprofloxacin (bracketed number) [24]
0.0125 µg/mL: MIC [3] | MIC ([8]; NIHJJC2, read-out: Minimum Inhibitory Concentration) | MIC [10] | MIC [15] | MIC [17]
0.39 µg/mL: MIC [5] | MIC [9] | MIC [13] | MIC [18] | MIC [23]
